PubChem BioAssay (NCI)
Where “and” joins values, the source holds several entries; their conditions need not be identical. Equal entries are not always repeated.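 Step 1: Grow cells in 96-well plates. Step 2: Expose to compound for 48 hours at 5 concentrations. Step 3: Interpolate endpoints linearly; if unreached, use highest concentration. At the GI50, growth is halved. TGI marks complete inhibition of growth.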

Assays:
Test in all cases: growth of human tumour cells (NCI), 48 h
TK-10 renal = system: TK-10 renal
NCI-H460 lung = system: NCI-H460 lung
SF-539 CNS = system: SF-539 CNS
UACC-62 melanoma = system: UACC-62 melanoma
UACC-257 melanoma = system: UACC-257 melanoma
OVCAR-4 ovarian = system: OVCAR-4 ovarian
SF-268 CNS = system: SF-268 CNS
SR leukemia = system: SR leukemia
IGROV1 ovarian = system: IGROV1 ovarian
SW-620 colon = system: SW-620 colon

Row | Structure (SMILES) | GI50 (TK-10 renal) | TGI (TK-10 renal) | GI50 (NCI-H460 lung) | TGI (NCI-H460 lung) | GI50 (SF-539 CNS) | TGI (SF-539 CNS) | GI50 (UACC-62 melanoma) | TGI (UACC-62 melanoma) | GI50 (UACC-257 melanoma) | TGI (UACC-257 melanoma) | GI50 (OVCAR-4 ovarian) | TGI (OVCAR-4 ovarian) | GI50 (SF-268 CNS) | TGI (SF-268 CNS) | GI50 (SR leukemia) | TGI (SR leukemia) | GI50 (IGROV1 ovarian) | TGI (IGROV1 ovarian) | GI50 (SW-620 colon) | TGI (SW-620 colon)
1 | CCOc1ccc(Nc2c3ccccc3nc3ccccc23)cc1 | 0.797 µM and 0.654 µM | 4.27 µM and 12.3 µM | 0.407 µM and 0.347 µM | 3.03 µM and 1.82 µM | 0.51 µM and 0.419 µM | 11.8 µM and 10.2 µM | 0.506 µM and 0.216 µM | 4.25 µM and 1.3 µM | 0.552 µM and 0.888 µM | 2.22 µM and 6.32 µM | 0.748 µM and 1.35 µM | 7.36 µM and 10.8 µM | 0.709 µM and 0.526 µM | 19.1 µM and 13.9 µM | 0.307 µM and 0.042 µM | 6.89 µM and 1.11 µM | 0.758 µM and 0.32 µM | 14.9 µM and 13.4 µM | 0.369 µM and 0.339 µM | 5.2 µM and 4.02 µM
2 | C/C1=C\CC[C@@](C)(O)[C@@H]2C[C@H](CC/C(C)=C/CC1)C1(CC1)C(=O)O2 | 29.6 µM | 96.5 µM | 51.5 µM | > 100 µM | 49.4 µM | > 100 µM | 15.2 µM | 37.3 µM | 77.8 µM | > 100 µM | 26.3 µM | > 100 µM | 81.7 µM | > 100 µM | 28 µM | 76.9 µM | 28.1 µM | > 100 µM | 27.1 µM | 73.1 µM
3 | COc1ccccc1NC(=O)/C(=C/c1ccccc1)C(C)=O | – | > 100 µM | – | > 100 µM | – | 62 µM | – | > 100 µM | – | > 100 µM | – | > 100 µM | – | > 100 µM | – | > 100 µM | – | > 100 µM | – | > 100 µM
4 | O=C(NCCN1CCNCC1)c1ccc(Nc2nc3ccccc3c3occc23)cc1 | 18.3 µM | 35.2 µM | 17.4 µM | > 100 µM | 2.65 µM | 6.36 µM | 17.6 µM | 32 µM | 17 µM | 33.8 µM | 14.3 µM | 33.3 µM | 21.3 µM | > 100 µM | 25 µM | 43.8 µM | 1.97 µM | 15.1 µM | 3.6 µM | 17.4 µM
5 | COc1ccc(C(=O)c2nc3ccccc3n2CC(=O)c2ccc(Cl)cc2)cc1 | 4.02 µM | > 100 µM | 7.34 µM | > 100 µM | 2.85 µM | > 30.5 µM | 4.93 µM | > 100 µM | > 23.6 µM | > 100 µM | 5.02 µM | > 100 µM | 5.98 µM | > 100 µM | 0.569 µM | – | 6.09 µM | > 100 µM | 1.29 µM | > 100 µM
6 | CC(C)Oc1ccc(C(=O)Cn2ccnc2)cc1-n1c(CN2CCN(C(=O)COc3ccc(Cl)cc3)CC2)nc2ccccc2c1=O | 12.8 µM | > 74.4 µM | 16.8 µM | 33.7 µM | 14.4 µM | 30.4 µM | 12.8 µM | 28.9 µM | 13.8 µM | 39.6 µM | 3.6 µM | > 64.8 µM | 12.9 µM | 32.9 µM | 5.64 µM | 36.8 µM | 1 µM | 16.5 µM | 13.4 µM | 50.9 µM
7 | COc1cc2nc(-c3ccc(C(F)(F)F)cc3)cc(OCCCN3CCCC3)c2cc1OC | 7.51 µM | > 34.5 µM | 0.597 µM | 19.6 µM | 2.56 µM | 12.6 µM | 1.57 µM | 6.6 µM | 1.37 µM | 8.51 µM | 3.1 µM | > 86.7 µM | 3.5 µM | > 48.1 µM | 0.207 µM | – | 0.593 µM | 14.5 µM | 2.59 µM | 29.6 µM
8 | N#Cc1c(-c2ccco2)cc(-c2ccccc2)[nH]c1=O | – | > 100 µM | – | > 100 µM | – | > 100 µM | – | > 100 µM | – | > 100 µM | – | > 100 µM | – | > 100 µM | – | > 100 µM | – | > 100 µM | – | > 100 µM
9 | CCN(CC)c1ccc(/C=C/C2=[N+](C)c3ccccc3C2(C)C)c(C)c1 | 0.0779 µM | 5.3 µM | < 0.0222 µM | 1.3 µM | 0.0939 µM | 7 µM | 0.0998 µM | 2.14 µM | 0.0546 µM | 0.226 µM | 0.0524 µM | 11.2 µM | 0.1 µM | 2.11 µM | 0.0275 µM | 1.71 µM | 0.117 µM | 11.4 µM | 0.0703 µM | 12.8 µM
